Biological target: T1, Axl (Homo sapiens, UniProt P30530)
T1 construct: endogenous in cells; host or cells: HeLa cells
T1 sequence (P30530 26-894): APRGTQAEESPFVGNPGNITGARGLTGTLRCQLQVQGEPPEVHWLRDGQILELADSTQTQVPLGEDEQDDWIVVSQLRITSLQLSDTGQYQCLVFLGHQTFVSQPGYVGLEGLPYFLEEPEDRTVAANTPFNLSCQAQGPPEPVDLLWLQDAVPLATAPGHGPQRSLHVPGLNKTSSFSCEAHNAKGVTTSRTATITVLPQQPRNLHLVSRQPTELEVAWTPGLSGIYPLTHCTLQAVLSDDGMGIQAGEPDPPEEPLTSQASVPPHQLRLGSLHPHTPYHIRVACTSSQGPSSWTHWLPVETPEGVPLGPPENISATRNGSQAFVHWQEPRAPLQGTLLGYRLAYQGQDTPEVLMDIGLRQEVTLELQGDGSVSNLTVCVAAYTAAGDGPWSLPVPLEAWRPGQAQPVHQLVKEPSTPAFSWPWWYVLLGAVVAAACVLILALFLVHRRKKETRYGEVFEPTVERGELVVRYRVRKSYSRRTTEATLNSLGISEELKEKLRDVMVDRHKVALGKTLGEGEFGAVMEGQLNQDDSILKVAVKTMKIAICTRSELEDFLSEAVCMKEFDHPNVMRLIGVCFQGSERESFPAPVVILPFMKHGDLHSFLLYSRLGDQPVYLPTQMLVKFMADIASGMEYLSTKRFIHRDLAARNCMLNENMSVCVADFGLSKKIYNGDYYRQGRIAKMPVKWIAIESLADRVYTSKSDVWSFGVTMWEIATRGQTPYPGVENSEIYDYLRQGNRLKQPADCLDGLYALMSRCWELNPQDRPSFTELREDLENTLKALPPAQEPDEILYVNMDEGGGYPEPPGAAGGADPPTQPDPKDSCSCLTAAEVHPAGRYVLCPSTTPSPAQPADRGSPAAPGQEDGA
Experiment: Phospho-Akt in-cell Western assay (inhibition of Axl activity)
Format: cell-based
Procedure: The compounds of the invention were tested in the following assay for their ability to inhibit Axl activity.
Phospho-Akt in-Cell Western Assay
• Cell culture plate: 96 well assay plate (Corning 3610), white, clear bottom, tissue-culture treated. • Cells: Hela cells. • Starvation medium: For Axl stimulation: 0.5% FCS (fetal calf serum) in DMEM, plus Axl/Fc (extracellular domain of AXL fused to immunoglobulin Fc region) (R&D, 154-AL) 500 ng/mL. • For EGF (epidermal growth factor) stimulation: 0.5% FCS in DMEM (Dulbecco's modified Eagles medium). • Poly-L-Lysine 0.01% solution (the working solution): 10 μg/ml, dilute In PBS (phosphate buffered saline). • Axl antibody cross-linking: • 1st: Mouse anti-Axl (R&D, MAB154). • 2nd: Biotin-SP-conjugated AffiniPure goat anti-mouse IgG (H+L) (Jackson ImmunoResearch #115-065-003). • Fixing buffer: 4% formaldehyde in PBS. • Wash buffer: 0.1% TritonX-100 in PBS. • Quenching buffer: 3% H2O2, 0.1% Azide in wash buffer, Azide and hydrogen peroxide (H2O2) are added fresh. • Blocking buffer: 5% BSA in TBST (tris buffered saline plus 0.1% Tween 20). • Primary antibody: Rabbit anti-human Phospho-Akt antibody (Cell Signaling 9271): 1×250 diluted in blocking buffer. • Secondary antibody: HRP (horse radish peroxidase)-conjugated Goat anti-Rabbit secondary, stock solution: Jackson ImmunoResearch (Goat anti-Rabbit HRP, #111-035-144) 1:1 diluted in glycerol, store at −20° C. The working solution: 1×2000 dilution of stock in blocking buffer. • Chemiluminescent working solution (Pierce, 37030): SuperSignal ELISA (enzyme linked immunosorbant assay) Pico Chemiluminescent substrate. • Crystal Violet solution: Stock: 2.5% Crystal violet in methanol, filtered and kept at ambient temperature. The working solution: dilute the stock 1:20 with PBS immediately before use. • 10% SDS: working solution: 5% SDS (sodium dodecylsulfate), diluted in PBS Methods: Day 1:
A 96 well TC (tissue culture treated) plate was coated with 10 μg/mL poly-L-Lysine at 37° C. for 30 min, washed twice with PBS, and air-dried for 5 minutes before cells were added. Hela cells were seeded at 10,000 cells/well and the cells were starved in 100 μL starvation medium containing Axl/Fc for 24 hrs.
The cells were pre-treated with test compounds by adding 100 μL of 2× test compound to the starvation medium on the cells. The cells were incubated at 37° C. for 1 hr before stimulation.
The cells were stimulated by Axl-antibody cross-linking as follows: A 5×1st/2nd Axl antibody mixture was made (37.5 μg/mL 1st/100 μg/mL 2nd) in starvation medium and nutated at 4° C. with thorough mixing for 1-2 hours for clustering. The resulting mix was warmed to 37° C. 50 μL of 5× Axl 1st/2nd of antibody cluster was added to the cells and the cells were incubated at 37° C. for 5 min.
After 5 minutes stimulation, the plate was flicked to remove medium and the plate was tapped onto paper towels. Formaldehyde (4.0% in PBS, 100 μL) was added to fix the cells and the cells were incubated at ambient temperature for 20 min without shaking.
The cells were washed with a plate washer buffer to remove the formaldehyde solution. The plate was flicked to removed excess wash buffer and tapped onto paper towels. Quenching buffer (100 μL) was added to each well and the cells were incubated at ambient temperature for 20 minutes without shaking.
The cells were washed with a plate washer buffer to remove the quenching buffer. Blocking buffer (100 μL) was added and the cells were incubated at ambient temperature for at least an hour with gentle shaking.
The cells were washed with a plate washer buffer and diluted primary antibody (50 μL) was added to each well (blocking buffer was added to the negative control wells instead). The plates were incubated overnight at 4° C. with gentle shaking.
The wash buffer was removed, diluted secondary antibody (100 μL) was added, and the cells were incubated at ambient temperature for 1 hour with gentle shaking. […]

[1] = Table 7, Hela cells, Axl antibody cross-linking stimulation, phospho-Akt chemiluminescence
[2] = Table 2, Hela cells, Axl antibody cross-linking stimulation, phospho-Akt chemiluminescence
[3] = inhibition of Axl activity, Table 1
[4] = Table 5, Hela cells, Axl antibody cross-linking stimulation, phospho-Akt chemiluminescence

Structure (SMILES) | IC50 [3] | further results
CN(C)c1ccc(NC(=O)n2nc(Nc3ccc(OCCN4CCCCC4)cc3)nc2N)cc1 [compound 44, 5-amino-N-(4-(dimethylamino)phenyl)-3-[4-[2-(piperidin-1-yl)ethoxy]phenylamino]-1H-1,2,4-triazole-1-carboxamide] |  | IC50 [1]: 1 to 10 µM
Nc1nc(Nc2ccc(OCCN3CCCCC3)cc2)nn1C(=O)NC1CCCC1 [compound 45, 5-amino-N-cyclopentyl-3-[4-[2-(piperidin-1-yl)ethoxy]phenylamino]-1H-1,2,4-triazole-1-carboxamide] |  | IC50 [1]: 1 to 10 µM
CCCCOc1ccc(NC(=O)n2nc(Nc3ccc(OCCN4CCCCC4)cc3)nc2N)cc1 [compound 46, 5-amino-N-(4-butoxyphenyl)-3-[4-[2-(piperidin-1-yl)ethoxy]phenylamino]-1H-1,2,4-triazole-1-carboxamide] |  | IC50 [1]: 1 to 10 µM
CC(C)Oc1ccc(C(=O)n2nc(N)nc2Nc2ccc(OCCN3CCCCC3)cc2)cc1 [compound 47, 3-amino-1-(4-(iso-propoxy)phenyl)carbonyl-5-[4-[2-(piperidin-1-yl)ethoxy]phenylamino]-1H-1,2,4-triazole] |  | IC50 [2]: > 20 µM
CC(C)Oc1ccc(C(=O)n2nc(Nc3ccc(N4CCOCC4)cc3)nc2N)cc1 [compound 48, 5-amino-1-(4-(iso-propoxy)phenyl)carbonyl-3-(4-(morpholin-4-yl)phenylamino]-1H-1,2,4-triazole] | < 1 µM | 
CC(C)Oc1ccc(C(=O)n2nc(N)nc2Nc2ccc(N3CCOCC3)cc2)cc1 [compound 49, 3-amino-1-(4-(iso-propoxy)phenyl)carbonyl-5-(4-(morpholin-4-yl)phenylamino]-1H-1,2,4-triazole] |  | IC50 [2]: > 20 µM
CC(C)(C)Oc1ccc(C(=O)n2nc(Nc3ccc(OCCN4CCCCC4)cc3)nc2N)cc1 [compound 50, 5-amino-3-[4-[2-(piperidin-1-yl)ethoxy]phenylamino]-1-(4-(tert-butoxy)phenyl)carbonyl-1H-1,2,4-triazole] | < 1 µM | 
Cc1ccc(C(=O)n2nc(N)nc2Nc2ccc(OC(C)C)cc2)cc1 [compound 56, 3-amino-5-[4-(iso-propoxy)phenylamino]-1-(4-(methyl)phenyl)carbonyl-1H-1,2,4-triazole] |  | IC50 [2]: > 20 µM
CC(C)(C)Oc1ccc(C(=O)n2nc(Nc3ccc(N4CCOCC4)cc3)nc2N)cc1 [compound 57, 5-amino-3-(4-(morpholin-4-yl)phenylamino)-1-(4-(tert-butoxy)phenyl)carbonyl-1H-1,2,4-triazole] | < 1 µM | 
CC(C)(C)Oc1ccc(C(=O)n2nc(N)nc2Nc2ccc(N3CCOCC3)cc2)cc1 [compound 58, 3-amino-5-(4-(morpholin-4-yl)phenylamino)-1-(4-(tert-butoxy)phenyl)carbonyl-1H-1,2,4-triazole] |  | IC50 [2]: > 20 µM
CC(C)Oc1ccc(C(=O)n2nc(Nc3ccc4c(c3)NC(=O)C(F)(F)O4)nc2N)cc1 [compound 63, 5-amino-3-(2,2-difluoro-2H-benzo[b][1,4]oxazin-3(4H)-on-6-yl)amino-1-(4-(iso-propoxy)phenyl)carbonyl-1H-1,2,4-triazole] |  | IC50 [4]: > 20 µM
Cc1cccc(C(=O)n2nc(Nc3ccc4c(c3)NC(=O)C(F)(F)O4)nc2N)c1 [compound 64, 5-amino-3-(2,2-difluoro-2H-benzo[b][1,4]oxazin-3(4H)-on-6-yl)amino-1-(3-(methyl)phenyl)carbonyl-1H-1,2,4-triazole] |  | IC50 [4]: > 20 µM
CC(C)Oc1ccc(Nc2nc(N)n(C(=O)c3ccc4c(c3)NC(=O)C(C)(C)O4)n2)cc1 [compound 65, 5-amino-1-(2,2-dimethyl-2H-benzo[b][1,4]oxazin-3(4H)-on-6-yl)carbonyl-3-(4-(iso-propoxy)phenyl)amino-1H-1,2,4-triazole] |  | IC50 (Table 3, Hela cells, Axl antibody cross-linking stimulation, phospho-Akt chemiluminescence): 1 to 10 µM

More lines, main results first:

IC50 [3] | Structure (SMILES) | further results
< 1 µM | CC(C)c1ccc(C(=O)n2nc(Nc3ccc(OCCN4CCCCC4)cc3)nc2N)cc1 [compound 51, 5-amino-1-(4-(iso-propyl)phenyl)carbonyl-3-[4-[2-(piperidin-1-yl)ethoxy]phenylamino]-1H-1,2,4-triazole] | 
< 1 µM | CC(C)c1ccc(C(=O)n2nc(Nc3ccc(N4CCOCC4)cc3)nc2N)cc1 [compound 52, 5-amino-1-(4-(iso-propyl)phenyl)carbonyl-3-(4-(morpholin-4-yl)phenylamino]-1H-1,2,4-triazole] | 
< 1 µM | Cc1ccc(C(=O)n2nc(Nc3ccc(OCCN4CCCCC4)cc3)nc2N)cc1 [compound 53, 5-amino-1-(4-(methyl)phenyl)carbonyl-3-[4-[2-(piperidin-1-yl)ethoxy]phenylamino]-1H-1,2,4-triazole] | 
< 1 µM | Cc1ccc(C(=O)n2nc(Nc3ccc(N4CCOCC4)cc3)nc2N)cc1 [compound 54, 5-amino-1-(4-(methyl)phenyl)carbonyl-3-(4-(morpholin-4-yl)phenylamino)-1H-1,2,4-triazole] | 
< 1 µM | Cc1ccc(C(=O)n2nc(Nc3ccc(OC(C)C)cc3)nc2N)cc1 [compound 55, 5-amino-3-[4-(iso-propoxy)phenylamino]-1-(4-(methyl)phenyl)carbonyl-1H-1,2,4-triazole] | 
< 1 µM | Cc1cccc(C(=O)n2nc(Nc3ccc(OCCN4CCCCC4)cc3)nc2N)c1 [compound 59, 5-amino-1-(3-(methyl)phenyl)carbonyl-3-[4-[2-(piperidin-1-yl)ethoxy]phenylamino]-1H-1,2,4-triazole] | 
< 1 µM | CC(C)Oc1ccc(C(=O)n2nc(Nc3ccc(OCCN4CCSCC4)cc3)nc2N)cc1 [compound 60] | 
1 to 10 µM | Cc1cccc(C(=O)n2nc(Nc3ccc(OCCN4CCSCC4)cc3)nc2N)c1 [compound 61] | 
1 to 10 µM | Nc1nc(Nc2ccc(OCCN3CCCCC3)cc2)nn1C(=O)c1ccc(C2CCCCC2)cc1 [compound 62, 5-amino-1-(4-(cyclohexyl)phenyl)carbonyl-3-[4-[2-(piperidin-1-yl)ethoxy]phenylamino]-1H-1,2,4-triazole] | 

Source: US8389557B2, “Triazole derivatives useful as Axl inhibitors” (Rigel Pharmaceuticals, Inc., priority 2005, dated 2013)
